Target: T1, TNF-α (Homo sapiens, UniProt P01375)
T1 construct: human recombinant TNF-α (PeproTech), intact homotrimer
Assay: competitive binding by SEC/ultrafiltration with LC-MS; SPD304 displaced and bound sennoside B detected
Conditions: read-out: % inhibition of SPD304 signal (at 3.5 μM)

T1 sequence (P01375 77-233): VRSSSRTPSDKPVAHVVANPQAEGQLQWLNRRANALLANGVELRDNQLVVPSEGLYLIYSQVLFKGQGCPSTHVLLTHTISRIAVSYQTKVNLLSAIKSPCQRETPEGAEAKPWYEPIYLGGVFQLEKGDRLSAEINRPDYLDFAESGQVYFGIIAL

In the case of `O=C(O)c1cc(O)c2c(c1)[C@@H]([C@H]1c3cc(C(=O)O)cc(O)c3C(=O)c3c(O[C@@H]4O[C@H](CO)[C@@H](O)[C@H](O)[C@H]4O)cccc31)c1cccc(O[C@@H]3O[C@H](CO)[C@@H](O)[C@H](O)[C@H]3O)c1C2=O` [compound 23, sennoside B], the inhibition at 3.5 µM is reported as 89.4%.

Source: paper PMC8465676, “A Novel Competitive Binding Screening Assay Reveals Sennoside B as a Potent Natural Product Inhibitor of TNF-α” (Biomedicines, 2021)
